# Activity calls are given as the source filed them. No cut-off for these calls is given here.
# Key:
# [1] = Cytotoxicity against human CCD-1072Sk cells assessed as reduction in cell viability at <400 uM measured after 24 hrs by MTT assay; type: cell-based
# [2] = Cytotoxicity against BALB/c mouse peritoneal macrophages assessed as reduction in cell viability incubated for 24 hrs by MTT assay; type: cell-based, Peritoneal macrophage
# Leishmania amazonensis [3] = assay: Antileishmanial activity against Leishmania amazonensis (MHOM/BR/76/MA-76) promastigotes assessed as reduction in parasite growth incubated for 24 hrs by MTT assay; type: functional, organism-based; conditions: MHOM/BR/76/MA-76, 24 h
# [4] = Selectivity index, ratio of CC50 for cytotoxicity against BALB/c mouse peritoneal macrophages to IC50 for antileishmanial activity against Leishmania amazonensis (MHOM/BR/76/MA-76) promastigotes; type: toxicity; conditions: read-out: Ratio CC50/IC50
# Leishmania amazonensis [5] = assay: Antileishmanial activity against Leishmania amazonensis (MHOM/BR/76/MA-76) intracellular amastigotes infected in BALB/c mouse peritoneal macrophages assessed as upward shift in concentration response curves of parasite viability incubated for 24 hrs by Giemsa's azur-eosin-methyle blue staining based light microscopy analysis; type: functional, organism-based; conditions: Peritoneal macrophage
# Leishmania amazonensis [6] = assay: (§1) Antileishmanial activity against Leishmania amazonensis (MHOM/BR/76/MA-76) intracellular amastigotes infected in BALB/c mouse peritoneal macrophages assessed as percentage of infected cells at 15.52 uM pretreated with 1400W for 1 hr followed by test compound addition measured after 24 hrs by Giemsa's azur-eosin-methylene blue staining based light microscopy analysis; type: functional, Peritoneal macrophage
# [7] = Selectivity index, ratio of CC50 for cytotoxicity against BALB/c mouse peritoneal macrophage to IC50 for antileishmanial activity against Leishmania amazonensis (MHOM/BR/76/MA-76) intracellular amastigotes infected in BALB/c mouse peritoneal macrophages; type: toxicity, cell-based; conditions: read-out: Ratio CC50/IC50
# Leishmania amazonensis [8] = assay: as §1, with “number” for “percentage”, “amastigotes per cell” for “infected cells”; type: functional, Peritoneal macrophage
# Peritoneal macrophage [9] = assay: Induction of NO production in BALB/C mouse peritoneal macrophages assessed as nitrite levels at 100 uM measured after 48 hrs by Griess reagent based assay (Rvb= 3.22 +/- 0.570 uM); type: functional
# Leishmania amazonensis [10] = assay: Induction of morphological changes in Leishmania amazonensis (MHOM/BR/76/MA-76) promastigotes assessed as lipid inclusions at IC50 incubated for 24 hrs by transmission electron microscopy analysis; type: functional, organism-based
# Leishmania amazonensis [11] = assay: as §1, with “uM” for “uM pretreated with 1400W for 1 hr followed by test compound addition”; type: functional, Peritoneal macrophage
# Peritoneal macrophage [12] = assay: Cytotoxicity against BALB/C mouse peritoneal macrophages assessed as reduction in cell viability at 100 uM measured after 24 hrs by MTT assay relative to control; type: cell-based
# [13] = Selectivity ratio of IC50 for antileishmanial activity against Leishmania amazonensis (MHOM/BR/76/MA-76) promastigotes to IC50 for antileishmanial activity against Leishmania amazonensis (MHOM/BR/76/MA-76) intracellular amastigotes infected in BALB/c mouse peritoneal macrophages; type: functional
# Leishmania amazonensis [14] = assay: (§2) Antileishmanial activity against Leishmania amazonensis (MHOM/BR/76/MA-76) intracellular amastigotes infected in BALB/c mouse peritoneal macrophages assessed as low amastigote mean at 5 to 40 uM incubated for 24 hrs by Giemsa's azur-eosin-methyle blue staining based light microscopy analysis; type: functional, organism-based; conditions: Peritoneal macrophage, dose 5-40 µM
# Leishmania amazonensis [15] = assay: as §2, with “decrease in number of amastigotes per infected cells” for “low amastigote mean”, “20” for “5”; type: functional, organism-based; conditions: Peritoneal macrophage, dose 20-40 µM
# Peritoneal macrophage [16] = assay: Upregulation of TNF-alpha mRNA expression in BALB/c mouse peritoneal macrophages stimulated with Leishmania amazonensis at 50 uM measured after 48 hrs by qRT-PCR analysis; type: functional, tissue-based
# Peritoneal macrophage [17] = assay: Upregulation of IL-10 mRNA expression in BALB/c mouse peritoneal macrophages stimulated with Leishmania amazonensis at 50 uM measured after 48 hrs by qRT-PCR analysis; type: functional, tissue-based
# Leishmania amazonensis [18] = assay: Antileishmanial activity against Leishmania amazonensis (MHOM/BR/76/MA-76) intracellular amastigotes infected in BALB/c mouse peritoneal macrophages assessed as reduction in parasite growth incubated for 24 hrs by Giemsa's azur-eosin-methyle blue staining based light microscopy analysis; type: functional, organism-based; conditions: MHOM/BR/76/MA-76, Peritoneal macrophage
# [19] = Upregulation of iNOS mRNA expression in BALB/c mouse peritoneal macrophages stimulated with Leishmania amazonensis at 50 uM measured after 48 hrs by qRT-PCR analysis; type: functional, Peritoneal macrophage
# Peritoneal macrophage [20] = assay: Upregulation of IL-6 mRNA expression in BALB/c mouse peritoneal macrophages stimulated with Leishmania amazonensis at 50 uM measured after 48 hrs by qRT-PCR analysis; type: functional, tissue-based
# Leishmania amazonensis [21] = assay: as §1, with “number” for “percentage”, “amastigotes per cell” for “infected cells”, “uM” for “uM pretreated with 1400W for 1 hr followed by test compound addition”; type: functional, Peritoneal macrophage
# [22] = Upregulation of iNOS mRNA expression in BALB/c mouse peritoneal macrophages at 50 uM measured after 48 hrs by qRT-PCR analysis relative to control; type: functional, Peritoneal macrophage
# Leishmania amazonensis [23] = assay: Induction of morphological changes in Leishmania amazonensis (MHOM/BR/76/MA-76) promastigotes assessed as formation of membrane profiles near the flagellar pocket at IC50 incubated for 24 hrs by transmission electron microscopy analysis; type: functional, organism-based
# Leishmania amazonensis [24] = assay: Antileishmanial activity against Leishmania amazonensis (MHOM/BR/76/MA-76) promastigotes assessed as upward shift in concentration response curves of parasite viability incubated for 24 hrs by MTT assay; type: functional, organism-based
# Leishmania amazonensis [25] = assay: Induction of morphological changes in Leishmania amazonensis (MHOM/BR/76/MA-76) promastigotes assessed as formation of small vesicles surrounded by a membrane in cytoplasm at IC50 incubated for 24 hrs by transmission electron microscopy analysis; type: functional, organism-based
# Peritoneal macrophage [26] = assay: Induction of NO production in BALB/C mouse peritoneal macrophages infected with Leishmania amazonensis assessed as nitrite levels at 50 uM measured after 48 hrs by Griess reagent based assay (Rvb= 4.11 +/- 0.156 uM); type: functional
# Leishmania amazonensis [27] = assay: Induction of morphological changes in Leishmania amazonensis (MHOM/BR/76/MA-76) promastigotes assessed as kinetoplast swelling at IC50 incubated for 24 hrs by transmission electron microscopy analysis; type: functional, organism-based
# Leishmania amazonensis [28] = assay: as §1, with “as number” for “as percentage”, “of amastigotes per 100” for “of infected”, “uM” for “uM pretreated with 1400W for 1 hr followed by test compound addition”; type: functional, Peritoneal macrophage
# Peritoneal macrophage [29] = assay: Upregulation of IL-1beta mRNA expression in BALB/c mouse peritoneal macrophages stimulated with Leishmania amazonensis at 50 uM measured after 48 hrs by qRT-PCR analysis; type: functional, tissue-based
# Peritoneal macrophage [30] = assay: Induction of NO production in BALB/C mouse peritoneal macrophages assessed as nitrite levels at 50 uM measured after 48 hrs by Griess reagent based assay (Rvb= 3.22 +/- 0.570 uM); type: functional
# [31] = Inhibition of iNOS expression in BALB/C mouse peritoneal macrophages stimulated with Leishmania amazonensis assessed as decrease in nitrite levels at 50 uM pretreated with 1400W for 1 hr followed by parasite stimulation and measured after 48 hrs by Griess reagent based assay (Rvb= 2.60 +/- -.236 uM); type: functional, Peritoneal macrophage
# Leishmania amazonensis [32] = assay: as §1, with “as number” for “as percentage”, “of amastigotes per 100” for “of infected”; type: functional, Peritoneal macrophage
# Leishmania amazonensis [33] = assay: as §2, with “decrease in number of amastigotes per 100 cells” for “low amastigote mean”, “10” for “5”; type: functional, organism-based; conditions: Peritoneal macrophage, dose 10-40 µM
# [34] = Inhibition of iNOS expression in BALB/c mouse peritoneal macrophages assessed as decrease in LPS induced nitrite levels at 50 uM pretreated with 1400W for 1 hr followed by LPS stimulation further treated with test compound and measured after 48 hrs by Griess reagent based assay (Rvb= 4.27 +/- 0.432 uM); type: functional, Peritoneal macrophage
# Peritoneal macrophage [35] = assay: Upregulation of IL-12 mRNA expression in BALB/c mouse peritoneal macrophages stimulated with Leishmania amazonensis at 50 uM measured after 48 hrs by qRT-PCR analysis; type: functional, tissue-based
# [36] = Cytotoxicity against human CCD-1072Sk cells assessed as reduction in cell viability measured after 24 hrs by MTT assay; type: cell-based
# Leishmania amazonensis [37] = assay: as §2, with “decrease in number of amastigotes per infected cells” for “low amastigote mean”, “up” for “5”; type: functional, organism-based; conditions: Peritoneal macrophage
# Leishmania amazonensis [38] = assay: as §2, with “decrease in number of amastigotes per 100 cells” for “low amastigote mean”, “at” for “at 5 to”; type: functional, organism-based; conditions: Peritoneal macrophage
# Leishmania amazonensis [39] = assay: Antileishmanial activity against Leishmania amazonensis (MHOM/BR/76/MA-76) intracellular amastigotes infected in BALB/c mouse peritoneal macrophages assessed as low amastigote mean at 40 uM incubated for 24 hrs by Giemsa's azur-eosin-methyle blue staining based light microscopy analysis; type: functional, organism-based; conditions: Peritoneal macrophage
# [40] = Inhibition of iNOS expression in BALB/c mouse peritoneal macrophages stimulated with Leishmania amazonensis assessed as decrease in nitrite levels at 200 nM pretreated for 1 hr followed by parasite stimulation and measured after 48 hrs by Griess reagent based assay; type: functional, Peritoneal macrophage; conditions: time 49 hrs
smiles,measurement,setting,value
O=c1ccc2cc(-n3cc(C(O)c4ccccc4-c4ccccc4)nn3)ccc2o1 (configuration not stated),Activity,[1],Non-Toxic
same,CC50 at 24 h,[2],141 µM
same,IC50,Leishmania amazonensis [3],> 200 µM
same,selectivity ratio,[4],< 0.7
O=c1ccc2cc(-n3cc(C(O)c4ccccc4Br)nn3)ccc2o1 (configuration not stated),Activity,[1],Non-Toxic
same,CC50 at 24 h,[2],348 µM
same,IC50,Leishmania amazonensis [3],81.4 µM
same,selectivity ratio,[4],4.27
COC(=O)c1ccc(-n2cc(C(O)c3cccnc3-c3ccccc3)nn2)cc1 (configuration not stated),Activity,[1],Non-Toxic
same,CC50 at 24 h,[2],> 400 µM
same,IC50,Leishmania amazonensis [3],95.9 µM
same,selectivity ratio,[4],> 4.17
CC(=O)c1ccc(-n2cc(C(O)c3ccccc3-c3ccccc3)nn2)cc1 (configuration not stated),Activity,[1],Non-Toxic
same,CC50 at 24 h,[2],234 µM
same,IC50,Leishmania amazonensis [3],56.6 µM
same,selectivity ratio,[4],4.12
OC(c1ccc(Br)cc1)c1cn(-c2ccc(Br)cc2)nn1 (configuration not stated),Activity,Leishmania amazonensis [5],Active
same,Activity,Leishmania amazonensis [6],79.6
same,selectivity ratio,[7],20.5
same,Activity,Leishmania amazonensis [8],3.68
same,Activity,Peritoneal macrophage [9],4.34 µM
same,Activity,[1],Non-Toxic
same,Activity,Leishmania amazonensis [10],Active
same,Activity,Leishmania amazonensis [11],55.6
same,Activity,Peritoneal macrophage [12],65.79%
same,Ratio IC50,[13],3.7
same,CC50 at 24 h,[2],84 µM
same,Activity,Leishmania amazonensis [14],Active
same,Activity,Leishmania amazonensis [15],Active
same,Activity,Peritoneal macrophage [16],Active
same,Activity,Peritoneal macrophage [17],inactive
same,IC50,Leishmania amazonensis [18],4.1 µM
same,fold change (FC),[19],24.47
same,Activity,Peritoneal macrophage [20],inactive
same,Activity,Leishmania amazonensis [21],2.86
same,fold change (FC),[22],12.28
same,Activity,Leishmania amazonensis [23],Active
same,IC50,Leishmania amazonensis [3],15.5 µM
same,Activity,Leishmania amazonensis [24],Active
same,Activity,Leishmania amazonensis [25],Active
same,Activity,Peritoneal macrophage [26],9.37 µM
same,Activity,Leishmania amazonensis [27],Active
same,selectivity ratio,[4],5.41
same,Activity,Leishmania amazonensis [28],169.38
same,Activity,Peritoneal macrophage [29],Active
same,Activity,Peritoneal macrophage [30],4.63 µM
same,Activity,[31],3.06 µM
same,Activity,Leishmania amazonensis [32],288.25
same,Activity,Leishmania amazonensis [33],Active
same,Activity,[34],2.65 µM
same,Activity,Peritoneal macrophage [35],inactive
OC(c1cn(-c2ccc(Br)cc2)nn1)c1ccccc1F (configuration not stated),Activity,[1],Non-Toxic
same,CC50 at 24 h,[2],> 400 µM
same,IC50,Leishmania amazonensis [3],110 µM
same,selectivity ratio,[4],> 3.62
CCCCCCCCCCCCCCCCOP(=O)([O-])OCC[N+](C)(C)C [MILTEFOSINE],Activity,Leishmania amazonensis [5],Active
same,selectivity ratio,[7],33.2
same,CC50 at 24 h,[2],169 µM
same,Activity,Leishmania amazonensis [14],Active
same,Activity,Leishmania amazonensis [15],Active
same,IC50,Leishmania amazonensis [18],5.11 µM
same,CC50 at 24 h,[36],191 µM
same,IC50,Leishmania amazonensis [3],8.02 µM
same,Activity,Leishmania amazonensis [24],Active
same,selectivity ratio,[4],21.1
same,Activity,Leishmania amazonensis [33],Active
COC(=O)c1ccc(-n2cc(C(O)c3ccccc3Br)nn2)cc1 (configuration not stated),Activity,Leishmania amazonensis [5],Active
same,selectivity ratio,[7],8.03
same,Activity,Leishmania amazonensis [37],inactive
same,Activity,[1],Non-Toxic
same,Activity,Leishmania amazonensis [10],Active
same,CC50 at 24 h,[2],297 µM
same,IC50,Leishmania amazonensis [18],37 µM
same,Activity,Leishmania amazonensis [38],Active
same,Activity,Leishmania amazonensis [23],Active
same,IC50,Leishmania amazonensis [3],27.8 µM
same,Activity,Leishmania amazonensis [24],Active
same,Activity,Leishmania amazonensis [25],Active
same,selectivity ratio,[4],10.7
same,Activity,Leishmania amazonensis [39],Active
OC(c1ccccc1)c1cn(-c2ccc(Br)cc2)nn1 (configuration not stated),Activity,[1],Non-Toxic
same,CC50 at 24 h,[2],> 400 µM
same,IC50,Leishmania amazonensis [3],> 200 µM
same,selectivity ratio,[4],> 2
CC(=N)NCc1cccc(CN)c1.Cl.Cl,Activity,[40],2.06 µM
OC(c1cn(-c2ccc(Br)cc2)nn1)c1ccccc1Br (configuration not stated),Activity,[1],Non-Toxic
same,CC50 at 24 h,[2],313 µM
same,IC50,Leishmania amazonensis [3],> 200 µM
same,selectivity ratio,[4],< 1.56
O=[N+]([O-])c1ccccc1C(O)c1cn(-c2ccc(Br)cc2)nn1 (configuration not stated),Activity,[1],Non-Toxic
same,CC50 at 24 h,[2],> 400 µM
same,IC50,Leishmania amazonensis [3],190 µM
same,selectivity ratio,[4],> 2.1
OC(c1ccc(Br)cc1)c1cn(-c2ccc(F)cc2)nn1 (configuration not stated),Activity,[1],Non-Toxic
same,CC50 at 24 h,[2],182 µM
same,IC50,Leishmania amazonensis [3],45.6 µM
same,selectivity ratio,[4],4
